For series [1], the system named is ApoA-I protein. Description: ApoA-I protein expression in HepG2 cells (ELISA of conditioned media). The class given is cell-based, human. As to conditions: 7.5 μM; for ApoA-I content in the medium (ELISA): 6 and 24 hours, vs untreated cells and cells treated with solvent; for time after addition of compound at which ApoA-I levels in the medium start to increase: time course 0, 6, 24 hours. On the procedure:
This study confirmed that compounds of the invention have an effect on ApoA-I protein secretion in HepG2 (liver) cells by measuring whether stimulation of transcriptional activity of the endogenous ApoA-I promoter in the HepG2 cells increased the abundance and secretion of ApoA-I protein.
The HepG2 cell line was obtained from the ATCC and cultured in MEM media supplemented with 10% FBS (Gibco), with 1 mM sodium pyruvate, 0.1 mM MEM non-essential amino acid, 2 mM L-glutamine, 100 U/ml penicillin, 100 μg/ml streptomycin and 5 μg/ml plasmocin. Cells were maintained at 37° C. in an atmosphere of 5% CO2 Cells were grown to 85% confluency prior to initiating the experiment.
Cells were plated and allowed to adhere overnight in a phenol red-free DMEM containing 10% of Charcoal/Dextran treated FBS (Hyclone), with 1 mM sodium pyruvate, 0.1 mM MEM non-essential amino acid, 2 mM L-glutamine, 100 U/ml penicillin, 100 μg/ml streptomycin and 5 μg/ml plasmocin. The medium was removed, and cells were washed in 1×PBS. Cells were then starved in phenol red-free DMEM (serum free) for a period of 24 hours. Cells were then mock treated (untreated, DMSO), or treated with compound of the invention diluted in phenol red-free DMEM (serum free) media at a concentration of 7.5 μM. Cells and media were harvested at 0, 6 and 24 hours following compound treatment.
Medium was removed from cells at the desired times and applied to a solid phase capture sandwich in an ELISA assay according to manufacturer's instructions (Total human Apolipoprotein ELISA Assay-Alercheck).

Series [2] deals with human ApoA-I promoter. Description: ApoA-I promoter induction in Caco-2 intestinal cells (pAI.474-Luc luciferase reporter). The class given is cell-based. As to conditions: Caco-2 cells, 15 μM, 48 hours incubation, luciferase activity vs control samples. The method in brief:
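Caco-2 cells stably carrying the human ApoA-I promoter–firefly luciferase construct (pAI.474-Luc) were starved 24 h in 0.5% FBS medium, then exposed to compound at 0 to 100 μM final for 48 h at 37° C. Luciferase activity in lysates was normalized to Bradford protein and compared with solvent-only and untreated controls.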

A short description of series [3]: Solubility analysis in PBS (HPLC-UV). The class given is physicochemical. As to conditions: aqueous buffer, thermodynamic from solid; 1 mg in 1 mL PBS, sonicated 1 hour, 25° C. for 3 hrs. How it is done: Samples were then centrifuged at 14,000 rpm for 6 minutes at room temperature. The supernatant was diluted with acetonitrile and was removed for analysis. Analysis was performed using HPLC-UV with 7-point standard curve to determine the concentration. The average concentration calculated is regarded as the solubility (μM).

Series [4] is described as follows: Caco-2 permeability. It is filed as in vitro ADME, human. Conditions: human, Caco-2. An excerpt: The Caco-2 cell drug transport model is widely used for screening compounds in drug discovery to assess intestinal transport and predict absorption rates.
On the technique in general: Caco-2 monolayers are a common model of the intestinal barrier.

The test system of series [5] is hApoA-I transgenic mice. Description: hApoA-I transgenic mice, oral gavage for 14 days. It is filed as in vivo. As to conditions: Mus musculus, po, 336 h, 10 mg/kg BID 14 days, relative to pretreatment, read-out: ApoA-I (% change). From the text:
To test whether the efficacy of compounds of the invention observed in vitro extended to an in vivo model, transgenic mice carrying multiple copies of the human ApoA-I gene (C57BI/6-tgn(apoa1)1 rub, Jackson Laboratory, Bar Harbor, Me.) were exposed to representative compounds of the invention. The exogenous human ApoA-I gene in these mice enables them to express the human ApoA-I protein under the control of this promoter.
Seven to eight week old male mice, transgenic for human ApoA-I were housed five per cage (10″×20″×8″ with aspen chip bedding) with pelleted Rodent chow [Purina 5001] and water available at all times. After an acclimation period of 1 week, animals were individually identified by numbering on tail and weighed. Mice were pre bled via the retro-orbital plexus, and 150 μl of blood was collected in 1.5 ml Eppendorf tube containing 1 μl of heparin and chilled on ice. Plasma was collected after centrifuging the whole blood at 14000 rpm [TOMY high speed micro-refrigerated centrifuge NTX-150] for 10 minutes at 4° C. and frozen at −80° C. Plasma was analyzed for: human ApoA-I by a human ApoA-I enzyme-linked Immunoassay [Direct Sandwich ELISA Calbiochem Cat#178422, Calbiochem Cat#178452, lot #B9076, Calbiochem Cat #178470 conjugated to Horse Radish Peroxidase (Cedarlane Cat#80220)]; total cholesterol [Ponte scientific reagents: # C7509-STD, #L7580-18, # C7510]; and triglyceride [Pointe Scientific Reagents: # 7532-STD, # L7580-18, #7532]. All samples were measured in triplicates and expressed as mg/dl. Mice were grouped based on the above plasma parameters and having an average body weight of 25 gm.
Two days following pre-bleed, mice were dosed by oral gavage daily for 14 days using a 20 gauge, 11/2″ curved disposable feeding needle [Popper & Sons]; when BID, mice were gavaged morning and afternoon (8 am and 5 pm); when SID mice were gavaged in morning (8 am). Compounds were prepared each day in vehicle. Test article(s), a positive control fenofibrate, and vehicle were dosed at volume of 5 mL/kg of body weight as a suspension (0.1 mL/20 g mouse). Fenofibrate was obtained commercially [SIGMA #F 6020]. Mice weights were recorded on day 1, 4, 7, 10, 12, and 15. On day 15, mice were weighed and fasted for 4 hours, sacrificed by inhalation of CO2 and blood was obtained via cardiac puncture (0.7-1.0 ml). Plasma was collected and frozen at −80° C. Samples were assayed for ApoA-I, total cholesterol, triglyceride and HDL-C by HPLC [Polaris 200 with an auto sampler Prostar 410 from Varian on a Superose 6 10/30 column from Amersham]. Samples were sent for NMR analysis [LipoScience] to identify particle size and subclass for lipoproteins. During necropsy, liver, brown fat, and the whole of small and large intestines were collected, cleaned with cold PBS and frozen at −80° C. for further analysis of compound levels. Variation between studies, in ApoA-I changes, was observed. Therefore, a relative comparison between individual(s) in the study groups was used.
4′-hydroxyflavone (10 mg/kg of body weight), 4-(4-oxo-4H-chromen-2-yl)phenyl nicotinate (Example 71) (10 mg/kg of body weight) and fenofibrate (100 mg/kg of body weight) were BID administered to hApoA-I transgenic mice daily for fourteen days by oral gavage in 0.5% Methylcellulose (w/v)/1% Tween 80 (w/v). Plasma was assayed for ApoA-I (FIG. 3A), HDL cholesterol and total cholesterol (FIG. 3B) and percent weight gain (FIG. 3C).
4′-hydroxyflavone (3 mg/kg of body weight), 4′-hydroxyflavone (10 mg/kg of body weight), 4′-hydroxyflavone (30 mg/kg of body weight), 2-(4-Hydroxy-phenyl)-pyrano[2,3-b]pyridin-4-one (10 mg/kg of body weight), and fenofibrate (100 mg/kg of body weight) were BID administered to hApoA-I transgenic mice daily for fourteen days by oral gavage in 0.5% methylcellulose (w/v)/1% Tween 80 (w/v). In this experiment plasma was assayed for ApoA-I. […]

Series [6] deals with human ApoA-I promoter. Briefly: ApoA-I promoter induction in HepG2 liver cells (pAI.474-Luc luciferase reporter). It is filed as cell-based. As to conditions: average values at 15 μM, 48 hours incubation. On the procedure: This study determined whether compounds of the invention have an effect on ApoA-I promoter activity expression in HepG2 cells, a liver cell line. Cells were grown under conditions recommended by the ATCC and summarized by Wong.
The promoter region of the gene encoding human ApoA-I was isolated and ligated upstream the structure gene of firefly luciferase to construct a reporter plasmid (pAI.474-Luc). The reporter plasmid, along with pRSV-β-galactosidase (as a control for transfection efficiency), were co-transfected into HepG2 cells. The cells were then incubated in an MEM selection media containing 20% fetal calf serum supplemented with G418 (final concentration: 0.5 mg/mL, Gibco) to give established strains that stably express from the reporter gene. The strains were seeded to a 6-well culture plates and incubated for 48 hours at 37° C. under 5% carbon dioxide. Cells were starved for 24 hrs in MEM selection media containing 0.5% FBS. Then, a solution of the compounds of the invention in DMSO (or other appropriate solvent) was added to the wells at a final concentration of 0 to 100 μM in MEM selection media containing 0.5% FBS.
After further incubation for 48 hours, the cells were harvested and lysed using Reporter Lysis Buffer (PROMEGA E3971), and 50 μL of luciferase assay reagent (PROMEGA E4550 Luciferase Reporter 1000 assay system) were added to measure luciferase activity with a luminometer (Fluoroskan Ascent FL from Thermo electron Corporation). Luciferase activity was normalized to lysate protein concentrations, measured using Bradford Reagent (Biorad Protein Assay reagent Cat #500-0006).
A general note: In a reporter assay the amount or activity of a reporter protein is the signal.

Where [7] appears, read: Table 6 fourth group, Control 3 1.11.

SMILES strings stand for the structures. Converted amounts (≈) assume the structure as drawn. Where two headings read alike, the source gives them in different places.

Usually melting point stands for the temperature of the solid-liquid transition. For `Cc1c(-c2ccc(O)cc2)oc2ccccc2c1=O` [Example 24, 2-(4-hydroxyphenyl)-3-methyl-4H-chromen-4-one], the melting point fell in the range of 241 to 242 °C. Further, in series [1], the “ApoA-I content in the medium (ELISA)” value was “increased significantly” and the “time after addition of compound at which ApoA-I levels in the medium start to increase” value is about 6 h.
Broadly, the solubility is the dissolved amount per volume that the medium holds. Higher therefore signals a readily soluble substance. What is called Papp is a coefficient for how fast a substance crosses the barrier. For `O=c1cc(-c2ccc(O)c(F)c2)oc2ncccc12` [Example 37, 2-(3-fluoro-4-hydroxyphenyl)pyrano[2,3-b]pyridine-4-one], the melting point was in the range of 267 to 268 °C. Moreover, in series [2], the “ApoA-I Promoter Induction” value is given as “increased”. For the same compound, the concentration in solution in series [3] (solubility at 3 h) was 194 µM (≈ 50 µg/mL). The apparent permeability (Papp) in series [4] was 2.06 ×10⁻⁶ cm/s. Also, in series [5] (Table 6 second group, Control 1 3.42), the change in vivo at 10 mg/kg was 14.4%.
The compound `O=c1cc(-c2ccc(O)cc2)oc2ccncc12` [Example 39, 2-(4-hydroxyphenyl)-4H-pyrano[3,2-c]pyridine-4-one] gave a melting point of 306 to 308 °C. In addition, the “ApoA-I Promoter Induction” value in series [2] is “increased”. In series [3], this compound gave a solubility at 3 h of 31.6 µM (≈ 7.56 µg/mL). Also, the Papp in series [4] was 1.21 ×10⁻⁶ cm/s. In addition, the change in vivo at 10 mg/kg in series [5] (setting [7]) was 11.2%.
Take `O=c1cc(-c2ccc(O)c(Cl)c2)oc2ncccc12` [Example 41, 2-(3-chloro-4-hydroxyphenyl)-4H-pyrano[2,3-b]pyridine-4-one]: the melting point fell in the range of 259 to 262 °C. Further, the “ApoA-I Promoter Induction” value in series [2] is “increased”. The solubility at 3 h in series [3] was 84.4 µM (≈ 23.1 µg/mL). This compound had a Papp in series [4] of 1.76 ×10⁻⁶ cm/s.
The like results for `O=c1cc(-c2ccc(O)c(Br)c2)oc2ncccc12` [Example 42, 2-(3-bromo-4-hydroxyphenyl)-4H-pyrano[2,3-b]pyridin-4-one] were, in that order, 267 to 272 °C, “increased”, 52.6 µM (≈ 16.7 µg/mL) and 0.959 ×10⁻⁶ cm/s.
For `COc1cc(-c2cc(=O)c3cccnc3o2)ccc1O` [Example 43, 2-(4-hydroxy-3-methoxyphenyl)-4H-pyrano[2,3-b]pyridine-4-one], the melting point lay in the range of 253 to 255 °C. Besides, the “ApoA-I Promoter Induction” value in series [2] was “increased”. The compound further came in with a solubility at 3 h in series [3] of 47.1 µM (≈ 12.7 µg/mL).
In turn, `COc1ccc(-c2cc(=O)c3cccnc3o2)cc1` [Example 44, 2-(4-methoxyphenyl)-4H-pyrano[2,3-b]pyridine-4-one] showed a melting point of 269 to 270 °C. The “ApoA-I Promoter Induction” value in series [2] is “increased”. Besides, in series [1], the “ApoA-I content in the medium (ELISA)” value is on record as “increased significantly” and the “time after addition of compound at which ApoA-I levels in the medium start to increase” value was about 6 h.
For the compound `O=c1cc(-c2ccc(OCCO)cc2)oc2ncccc12` [Example 45, 2-(4-(2-hydroxyethoxy)phenyl)-4H-pyrano[2,3-b]pyridine-4-one], the melting point is 157 to 159 °C. Further, in series [2], the “ApoA-I Promoter Induction” value was “increased”. In series [3], this compound displayed a solubility at 3 h of 334 µM (≈ 94.6 µg/mL).
The compound `O=c1[nH]c(-c2ccc(O)cc2)cc2ccccc12` [Example 53, 3-(4-hydroxyphenyl)-2H-isoquinolin-1-one] gave a melting point of 239 to 241 °C. Besides, in series [2], the “ApoA-I Promoter Induction” value is given as “increased”. In series [6], the “ApoA-I Promoter Induction” value was “increased”. Besides, in series [3], the concentration in solution (solubility at 3 h) came to 44.9 µM (≈ 10.7 µg/mL). Besides, the Papp in series [4] came out at 1.76 ×10⁻⁶ cm/s. The change in vivo at 10 mg/kg in series [5] (setting [7]) was found to be 13.2%.
Take `COc1cc(OC)c2c(=O)[nH]c(-c3ccc(O)cc3)cc2c1` [Example 60, 3-(4-Hydroxyphenyl)-6,8-dimethoxyisoquinolin-1(2H)-one]: the melting point lay in the range of 245 to 247 °C. Moreover, in series [2], the “ApoA-I Promoter Induction” value was “increased”. Further, the solubility at 3 h in series [3] is 58.2 µM (≈ 17.3 µg/mL).
The like results for `O=c1cc(-c2ccc(O)c(CO)c2)oc2ncccc12` [Example 81, 2-(4-hydroxy-3-(hydroxymethyl)phenyl)-4H-pyrano[2,3-b]pyridin-4-one] were, in that order, 226 to 227 °C, “increased” and 48.5 µM (≈ 13.1 µg/mL).
The like results for `CNc1nc(-c2ccc(O)cc2)cc2cc(OC)cc(OC)c12.Cl` [Example 82, 4-(6,8-dimethoxy-1-(methylamino)isoquinolin-3-yl)phenol hydrochloride] were, in that order, 250 to 253 °C, “increased” and 66.8 µM.

Source of the values: patent US8093273B2, “Flavanoids and isoflavanoids for the prevention and treatment of cardiovascular diseases” (Resverlogix Corp., priority 2004, dated 2012).
